Measurements reported in ChEMBL document CHEMBL5137132, “Ulleungdolin, a Polyketide-Peptide Hybrid Bearing a 2,4-Di-O-methyl-β-d-antiarose from Streptomyces sp. 13F051 Co-cultured with Leohumicola minima 15S071” (2022).

Legend:
MDA-MB-231 [1] = assay: Anti-migration activity against human MDA-MB-231 cells assessed as inhibition of cell migration at 10 uM incubated for 18 hrs by wound healing assay; assay type: functional
MDA-MB-231 [2] = assay: Anti-migration activity against human MDA-MB-231 cells assessed as inhibition of cell migration at 25 uM incubated for 18 hrs by wound healing assay; assay type: functional

What does the source list for `CO[C@@H]1[C@@H](O)[C@@H](OC)[C@H](Oc2cccc3c2C(=O)N([C@@]2(C(=O)N[C@H](C(=O)N[C@H](C(=O)O)c4ccc(O)cc4)[C@H](O)CC(N)=O)C[C@@H]2C)[C@H]3CCCCCCCC(=O)O)O[C@@H]1C`?
inhibition at 10 µM (MDA-MB-231 [1]): 42%; inhibition at 25 µM (MDA-MB-231 [2]): 100%
